Data taken from ChEMBL document CHEMBL1201862, “PubChem BioAssay data set” (2004).
Each block holds one compound with its values, some of them ahead of it. Activity calls are given as the source filed them.

Key:
[1] = target: Kappa-type opioid receptor (Homo sapiens, UniProt P41145); experiment: SAR analysis of small molecule agonists of the kappa opioid receptor via a luminescent beta-arrestin assay - Set 3. [Related pubchem assays (depositor defined):AID1777, AID1785, AID1786, AID1966, AID2133, AID2136, AID2284, AID2500]; assay type: functional
Kappa-type opioid receptor, sequence (P41145 whole entry): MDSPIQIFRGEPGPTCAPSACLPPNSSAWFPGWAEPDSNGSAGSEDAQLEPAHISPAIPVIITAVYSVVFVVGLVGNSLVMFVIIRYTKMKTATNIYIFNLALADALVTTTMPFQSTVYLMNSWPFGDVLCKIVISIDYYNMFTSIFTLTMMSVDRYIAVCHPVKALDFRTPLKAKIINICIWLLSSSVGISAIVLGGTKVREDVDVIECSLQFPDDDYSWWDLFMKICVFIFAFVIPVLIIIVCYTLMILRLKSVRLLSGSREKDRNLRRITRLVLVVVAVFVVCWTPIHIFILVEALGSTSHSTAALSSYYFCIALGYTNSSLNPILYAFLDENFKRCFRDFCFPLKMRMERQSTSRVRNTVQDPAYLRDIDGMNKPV

[2] = target: Sphingosine 1-phosphate receptor 2 (Homo sapiens, UniProt O95136); experiment: Late stage counterscreen assay for S1P4 antagonists: Fluorescence dose response cell-based screening assay for antagonists of the Sphingosine 1-Phosphate Receptor 2 (S1P2). [Related pubchem assays (depositor defined):AID1510, AID1524, AID1692, AID1853, AID2332, AID489009, AID489017]; assay type: functional
Sphingosine 1-phosphate receptor 2, sequence (O95136 whole entry): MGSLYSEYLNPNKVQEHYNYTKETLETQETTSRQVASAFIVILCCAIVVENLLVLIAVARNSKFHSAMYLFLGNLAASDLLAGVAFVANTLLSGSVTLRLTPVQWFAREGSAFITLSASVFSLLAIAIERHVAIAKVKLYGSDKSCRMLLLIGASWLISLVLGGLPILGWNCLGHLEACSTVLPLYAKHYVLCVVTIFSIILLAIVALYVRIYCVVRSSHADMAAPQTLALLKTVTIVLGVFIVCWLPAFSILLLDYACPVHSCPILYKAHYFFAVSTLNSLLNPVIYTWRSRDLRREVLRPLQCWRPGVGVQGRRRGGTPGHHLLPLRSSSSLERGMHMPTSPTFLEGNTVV

[3] = target: Sphingosine 1-phosphate receptor 5 (Homo sapiens, UniProt Q9H228); experiment: Late stage counterscreen assay for S1P4 antagonists: Fluorescence dose response cell-based screening assay for antagonists of the Sphingosine 1-Phosphate Receptor 5 (S1P5). [Related pubchem assays (depositor defined):AID1510, AID1524, AID1692, AID1853, AID2332, AID489009, AID489017]; assay type: functional
Sphingosine 1-phosphate receptor 5, sequence (Q9H228 whole entry): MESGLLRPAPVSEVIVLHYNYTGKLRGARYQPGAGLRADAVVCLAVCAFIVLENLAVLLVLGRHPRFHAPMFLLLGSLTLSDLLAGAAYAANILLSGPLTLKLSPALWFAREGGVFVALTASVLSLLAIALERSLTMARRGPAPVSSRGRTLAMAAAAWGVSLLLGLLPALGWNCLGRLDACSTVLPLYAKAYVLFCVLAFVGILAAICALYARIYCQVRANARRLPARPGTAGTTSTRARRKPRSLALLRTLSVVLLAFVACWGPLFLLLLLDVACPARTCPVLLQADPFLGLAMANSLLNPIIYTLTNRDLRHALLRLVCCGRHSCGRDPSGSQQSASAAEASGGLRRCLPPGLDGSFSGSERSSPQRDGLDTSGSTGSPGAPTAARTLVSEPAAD

[4] = target: Voltage-dependent T-type calcium channel subunit alpha-1H (Homo sapiens, UniProt O95180); assay type: functional;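 note: channel activity triggered by adding a high calcium stimulation buffer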
[5] = target: Sphingosine 1-phosphate receptor 1 (Homo sapiens, UniProt P21453); experiment: Late stage counterscreen assay for S1P4 antagonists: Fluorescence dose response cell-based screening assay for antagonists of the Sphingosine 1-Phosphate Receptor 1 (S1P1). [Related pubchem assays (depositor defined):AID1510, AID1524, AID1692, AID1853, AID2332, AID489009, AID489017]; assay type: functional
[6] = target: Sphingosine 1-phosphate receptor 3 (Homo sapiens, UniProt Q99500); experiment: Late stage counterscreen assay for S1P4 antagonists: Fluorescence dose response cell-based screening assay for antagonists of the Sphingosine 1-Phosphate Receptor 3 (S1P3). [Related pubchem assays (depositor defined):AID1510, AID1524, AID1692, AID1853, AID2332, AID489009, AID489017]; assay type: functional
Sphingosine 1-phosphate receptor 3, sequence (Q99500 whole entry): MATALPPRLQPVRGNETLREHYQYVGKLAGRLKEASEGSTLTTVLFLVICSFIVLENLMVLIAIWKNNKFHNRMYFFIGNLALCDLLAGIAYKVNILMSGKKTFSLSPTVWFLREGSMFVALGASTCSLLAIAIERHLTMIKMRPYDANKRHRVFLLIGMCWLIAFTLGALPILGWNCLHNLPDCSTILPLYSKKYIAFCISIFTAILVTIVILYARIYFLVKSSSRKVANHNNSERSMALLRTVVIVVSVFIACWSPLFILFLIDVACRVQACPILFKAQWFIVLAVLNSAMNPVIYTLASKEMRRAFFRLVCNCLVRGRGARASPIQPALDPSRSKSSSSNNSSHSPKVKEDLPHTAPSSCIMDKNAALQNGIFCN

[7] = target: T1, E3 ubiquitin-protein ligase XIAP (Homo sapiens, UniProt P98170); experiment: Counter Screen using XIAP-Bir3 for Chemical Antagonists of Bir1/2 domains of IAP-family anti-apoptotic proteins. [Related pubchem assays (depositor defined):AID1018, AID1449, AID1514, AID1638, AID1749, AID1750, AID488957, AID488963]
T1 sequence (P98170 whole entry): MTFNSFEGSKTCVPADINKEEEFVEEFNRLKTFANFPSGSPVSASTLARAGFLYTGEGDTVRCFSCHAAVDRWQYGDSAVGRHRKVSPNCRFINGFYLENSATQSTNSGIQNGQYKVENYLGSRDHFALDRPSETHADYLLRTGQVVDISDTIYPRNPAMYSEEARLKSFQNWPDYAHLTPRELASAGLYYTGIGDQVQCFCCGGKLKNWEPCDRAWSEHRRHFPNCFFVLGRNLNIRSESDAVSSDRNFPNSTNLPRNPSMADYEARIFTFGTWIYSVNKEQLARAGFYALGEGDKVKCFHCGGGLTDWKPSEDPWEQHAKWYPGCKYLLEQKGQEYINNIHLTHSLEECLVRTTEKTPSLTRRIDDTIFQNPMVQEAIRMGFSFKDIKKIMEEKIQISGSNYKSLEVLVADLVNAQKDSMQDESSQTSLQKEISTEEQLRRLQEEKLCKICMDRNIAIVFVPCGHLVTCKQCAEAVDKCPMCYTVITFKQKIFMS

[8] = target: T1, E3 ubiquitin-protein ligase XIAP; experiment: small molecules displacing peptide from XIAP – biochemical, IAP family, fluorescence polarization (AID 1018); assay type: functional
[9] = target: T2, Cannabinoid receptor 1 (Homo sapiens, UniProt P21554); experiment: SAR analysis of antagonists of the Cannabinoid Receptor 1 using an Image-Based Assay - Set 3. [Related pubchem assays (depositor defined):AID1961, AID1965]; assay type: functional
T2 sequence (P21554 whole entry): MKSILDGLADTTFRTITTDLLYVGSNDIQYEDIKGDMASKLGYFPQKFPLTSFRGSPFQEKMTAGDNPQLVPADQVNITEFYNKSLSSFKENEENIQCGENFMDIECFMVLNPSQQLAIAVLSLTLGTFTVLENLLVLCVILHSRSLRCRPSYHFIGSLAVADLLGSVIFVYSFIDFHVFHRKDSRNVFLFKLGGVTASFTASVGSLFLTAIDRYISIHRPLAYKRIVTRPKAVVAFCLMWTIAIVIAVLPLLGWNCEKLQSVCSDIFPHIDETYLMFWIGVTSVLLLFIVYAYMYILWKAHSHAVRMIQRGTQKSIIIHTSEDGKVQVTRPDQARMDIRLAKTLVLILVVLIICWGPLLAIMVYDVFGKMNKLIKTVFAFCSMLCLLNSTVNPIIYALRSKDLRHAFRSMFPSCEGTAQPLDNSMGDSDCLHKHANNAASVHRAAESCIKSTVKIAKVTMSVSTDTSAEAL

[10] = target: T2, Cannabinoid receptor 1; experiment: SAR analysis of agonists of the Cannabinoid Receptor 1 using an Image-Based Assay - Set 3. [Related pubchem assays (depositor defined):AID1961, AID1965]; assay type: functional
[11] = target: G-protein coupled receptor 55 (Homo sapiens, UniProt Q9Y2T6); experiment: SAR analysis of selective Agonists of GPR55 using an Image-Based Assay - Set 2. [Related pubchem assays (depositor defined):AID1961, AID1965]; assay type: functional
[12] = target: T3, G-protein coupled receptor 35 (Homo sapiens, UniProt Q9HC97); experiment: SAR analysis of Antagonists of the GPR35 Receptor using an Image-Based Assay - Set 4. [Related pubchem assays (depositor defined):[…]]; assay type: functional
T3 sequence (Q9HC97 whole entry): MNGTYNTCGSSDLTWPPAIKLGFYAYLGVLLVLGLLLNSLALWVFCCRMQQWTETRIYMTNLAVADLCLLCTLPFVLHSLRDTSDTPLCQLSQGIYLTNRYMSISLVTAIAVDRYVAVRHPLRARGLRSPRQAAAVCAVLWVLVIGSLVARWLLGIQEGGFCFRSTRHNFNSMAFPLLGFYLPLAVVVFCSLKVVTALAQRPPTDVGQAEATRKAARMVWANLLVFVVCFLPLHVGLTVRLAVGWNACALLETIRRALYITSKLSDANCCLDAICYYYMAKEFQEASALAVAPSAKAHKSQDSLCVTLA

[13] = target: T4, Cannabinoid receptor 2 (Homo sapiens, UniProt P34972); experiment: SAR analysis of agonists of the Cannabinoid Receptor 2 using an Image-Based Assay - Set 2. [Related pubchem assays (depositor defined):AID1961, AID1965]; assay type: functional
T4 sequence (P34972 whole entry): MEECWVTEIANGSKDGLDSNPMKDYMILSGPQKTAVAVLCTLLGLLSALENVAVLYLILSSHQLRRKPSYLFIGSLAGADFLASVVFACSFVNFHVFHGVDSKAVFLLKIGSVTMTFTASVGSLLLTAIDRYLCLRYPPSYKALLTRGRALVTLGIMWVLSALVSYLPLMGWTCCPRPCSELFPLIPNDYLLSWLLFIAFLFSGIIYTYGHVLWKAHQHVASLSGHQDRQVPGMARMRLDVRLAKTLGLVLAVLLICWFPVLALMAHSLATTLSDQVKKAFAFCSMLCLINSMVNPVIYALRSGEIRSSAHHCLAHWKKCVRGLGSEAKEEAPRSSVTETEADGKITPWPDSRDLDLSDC

[14] = target: T4, Cannabinoid receptor 2; experiment: SAR analysis of antagonists of the Cannabinoid Receptor 2 using an Image-Based Assay - Set 2. [Related pubchem assays (depositor defined):AID1961, AID1965]; assay type: functional
[15] = target: T3, G-protein coupled receptor 35; experiment: SAR analysis of Agonists of the GPR35 Receptor using an Image-Based Assay - Set 3. [Related pubchem assays (depositor defined):AID1961, AID1965]; assay type: functional
[16] = target: T5, Mucolipin-3 (Homo sapiens, UniProt Q8TDD5); experiment: Fluorescence counterscreen assay for […] agonists: dose response cell-based high-throughput screening assay to identify agonists of the transient receptor potential channel ML3 (TRPML3). [Related pubchem assays: 1424, 1448 ]; assay type: functional
T5 sequence (Q8TDD5 whole entry): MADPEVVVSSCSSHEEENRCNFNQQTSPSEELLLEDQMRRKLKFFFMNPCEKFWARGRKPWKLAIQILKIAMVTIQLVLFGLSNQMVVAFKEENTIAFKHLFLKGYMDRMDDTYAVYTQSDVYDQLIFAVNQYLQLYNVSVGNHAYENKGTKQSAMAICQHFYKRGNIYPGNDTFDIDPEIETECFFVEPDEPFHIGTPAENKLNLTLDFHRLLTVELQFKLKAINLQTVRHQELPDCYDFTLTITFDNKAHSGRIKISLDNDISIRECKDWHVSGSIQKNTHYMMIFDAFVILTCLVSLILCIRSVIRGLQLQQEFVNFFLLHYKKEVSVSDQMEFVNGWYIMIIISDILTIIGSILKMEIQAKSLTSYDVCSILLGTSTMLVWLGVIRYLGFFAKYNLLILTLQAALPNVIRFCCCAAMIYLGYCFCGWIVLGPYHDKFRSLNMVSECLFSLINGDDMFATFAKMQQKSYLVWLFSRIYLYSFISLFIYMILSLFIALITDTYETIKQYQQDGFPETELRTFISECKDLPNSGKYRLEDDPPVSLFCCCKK

[17] = target: Ion channel NompC (Danio rerio, UniProt Q7T1G6); experiment: Dose response cell-based high-throughput screening assay for agonists of the transient receptor potential channel N1 (TRPN1). [Related pubchem assays (depositor defined):AID1424, AID1448]; assay type: functional
Ion channel NompC, sequence (Q7T1G6 whole entry): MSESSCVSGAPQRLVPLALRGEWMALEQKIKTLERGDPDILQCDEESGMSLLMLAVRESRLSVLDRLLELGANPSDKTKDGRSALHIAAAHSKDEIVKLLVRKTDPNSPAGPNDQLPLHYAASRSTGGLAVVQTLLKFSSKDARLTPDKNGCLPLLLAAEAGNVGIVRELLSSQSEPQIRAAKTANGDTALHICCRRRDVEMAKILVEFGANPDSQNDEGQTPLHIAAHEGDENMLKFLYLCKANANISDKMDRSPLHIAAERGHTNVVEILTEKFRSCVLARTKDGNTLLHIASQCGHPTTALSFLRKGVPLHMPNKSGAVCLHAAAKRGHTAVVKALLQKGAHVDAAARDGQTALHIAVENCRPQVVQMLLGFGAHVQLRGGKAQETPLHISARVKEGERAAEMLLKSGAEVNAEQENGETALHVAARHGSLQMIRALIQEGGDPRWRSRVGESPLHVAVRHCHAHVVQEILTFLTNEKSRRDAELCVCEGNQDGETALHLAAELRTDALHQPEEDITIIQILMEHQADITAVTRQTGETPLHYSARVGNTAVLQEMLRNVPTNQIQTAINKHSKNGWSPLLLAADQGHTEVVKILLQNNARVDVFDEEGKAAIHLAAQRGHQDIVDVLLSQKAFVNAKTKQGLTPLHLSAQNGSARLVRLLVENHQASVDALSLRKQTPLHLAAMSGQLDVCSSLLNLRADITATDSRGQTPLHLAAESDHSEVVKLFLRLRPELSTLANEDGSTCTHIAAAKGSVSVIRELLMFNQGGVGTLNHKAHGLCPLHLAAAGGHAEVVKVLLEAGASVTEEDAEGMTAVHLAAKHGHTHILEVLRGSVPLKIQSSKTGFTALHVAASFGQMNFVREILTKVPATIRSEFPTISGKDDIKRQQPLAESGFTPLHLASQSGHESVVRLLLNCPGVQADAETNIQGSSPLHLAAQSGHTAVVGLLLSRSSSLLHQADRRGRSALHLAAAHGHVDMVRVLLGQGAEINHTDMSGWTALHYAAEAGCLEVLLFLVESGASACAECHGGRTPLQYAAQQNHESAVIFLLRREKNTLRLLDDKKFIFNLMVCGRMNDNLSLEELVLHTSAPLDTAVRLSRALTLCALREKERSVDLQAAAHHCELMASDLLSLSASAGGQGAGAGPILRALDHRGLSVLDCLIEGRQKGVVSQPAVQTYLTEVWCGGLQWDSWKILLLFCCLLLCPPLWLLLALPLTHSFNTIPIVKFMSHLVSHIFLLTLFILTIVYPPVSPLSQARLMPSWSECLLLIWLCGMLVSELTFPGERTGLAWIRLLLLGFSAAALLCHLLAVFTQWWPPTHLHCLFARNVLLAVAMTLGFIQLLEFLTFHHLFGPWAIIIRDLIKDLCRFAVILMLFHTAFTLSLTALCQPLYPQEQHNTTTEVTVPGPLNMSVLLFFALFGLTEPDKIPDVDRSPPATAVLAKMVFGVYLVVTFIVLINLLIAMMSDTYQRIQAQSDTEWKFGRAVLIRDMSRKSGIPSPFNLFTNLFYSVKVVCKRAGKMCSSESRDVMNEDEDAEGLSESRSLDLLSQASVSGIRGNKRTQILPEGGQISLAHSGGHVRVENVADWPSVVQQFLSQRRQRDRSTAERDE

[18] = target: T6, Short transient receptor potential channel 4 (Mus musculus, UniProt Q9QUQ5); experiment: calcium entry via TRPC4 opening agents – cell-based, HEK293 TRPC4/mu-opioid, Fluo-4 calcium, dose response (AID 434937); assay type: functional
T6 sequence (Q9QUQ5 whole entry): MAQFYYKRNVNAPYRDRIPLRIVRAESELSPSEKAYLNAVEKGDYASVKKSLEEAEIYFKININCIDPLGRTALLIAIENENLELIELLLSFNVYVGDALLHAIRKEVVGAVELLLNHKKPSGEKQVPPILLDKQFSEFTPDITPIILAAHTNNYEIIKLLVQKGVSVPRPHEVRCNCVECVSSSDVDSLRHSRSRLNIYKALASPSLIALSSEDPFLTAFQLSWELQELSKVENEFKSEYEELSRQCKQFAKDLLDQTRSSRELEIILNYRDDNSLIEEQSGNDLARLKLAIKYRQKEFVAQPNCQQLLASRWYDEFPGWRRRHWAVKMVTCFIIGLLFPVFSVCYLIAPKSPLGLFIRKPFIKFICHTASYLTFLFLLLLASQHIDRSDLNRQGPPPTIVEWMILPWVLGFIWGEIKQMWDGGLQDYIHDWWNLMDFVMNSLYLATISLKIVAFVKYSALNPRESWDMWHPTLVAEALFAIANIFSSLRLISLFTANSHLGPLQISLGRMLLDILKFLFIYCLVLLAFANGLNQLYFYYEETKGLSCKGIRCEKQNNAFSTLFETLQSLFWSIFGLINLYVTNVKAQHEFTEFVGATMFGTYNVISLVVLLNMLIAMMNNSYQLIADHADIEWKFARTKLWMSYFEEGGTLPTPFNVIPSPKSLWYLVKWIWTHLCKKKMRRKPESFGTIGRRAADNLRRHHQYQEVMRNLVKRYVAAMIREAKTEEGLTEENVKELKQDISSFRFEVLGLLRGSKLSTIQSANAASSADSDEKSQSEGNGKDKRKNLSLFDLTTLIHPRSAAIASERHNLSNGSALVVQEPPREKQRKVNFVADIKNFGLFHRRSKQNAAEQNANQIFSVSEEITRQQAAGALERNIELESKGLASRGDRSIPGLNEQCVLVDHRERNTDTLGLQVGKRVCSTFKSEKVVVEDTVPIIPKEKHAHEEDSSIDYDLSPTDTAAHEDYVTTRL

[19] = target: T7, Bcl-2-related protein A1 (Mus musculus, UniProt Q07440); assay type: functional;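 note: confirmatory dose–response counterscreen on Bfl-1, used to check hits from a UBC13 polyubiquitin inhibitor campaign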
T7 sequence (Q07440 whole entry): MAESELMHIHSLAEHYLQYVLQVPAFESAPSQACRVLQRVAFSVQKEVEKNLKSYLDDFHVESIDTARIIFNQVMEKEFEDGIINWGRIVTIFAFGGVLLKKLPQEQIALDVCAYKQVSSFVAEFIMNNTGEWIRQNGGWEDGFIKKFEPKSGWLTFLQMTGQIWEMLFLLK

[20] = target: T8, Ubiquitin-conjugating enzyme E2 N (Homo sapiens, UniProt P61088); assay type: functional
T8 sequence (P61088 whole entry): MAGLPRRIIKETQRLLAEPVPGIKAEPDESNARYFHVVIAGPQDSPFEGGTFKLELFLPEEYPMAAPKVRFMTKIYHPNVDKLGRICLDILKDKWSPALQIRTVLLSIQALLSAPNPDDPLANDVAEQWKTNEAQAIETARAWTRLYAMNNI

[21] = target: T8, Ubiquitin-conjugating enzyme E2 N; assay type: functional; remark: listed apart in the source

EC50 [1]: 11.3 µM (inactive)
Structure (SMILES): Brc1ccc(CSc2nnc(-c3ccc(Br)cc3)n2Cc2ccco2)cc1

IC50 [2]: 14.2 µM (inactive)
IC50 [3]: 9.62 µM (active)
EC50 [4]: 5.94 µM (active)
IC50 [5]: > 25 µM (inactive)
IC50 [6]: 25.4 µM (inactive)
Structure (SMILES): Cc1cccc(C)c1NC(=O)c1ccc(-c2ccc(Cl)cc2Cl)o1

IC50 [7]: > 100 µM (inactive)
IC50 [8]: > 100 µM (not active)
Structure (SMILES): CCN(Cc1ccccc1)C(=O)/C=C/c1ccccc1[N+](=O)[O-]

IC50 [9]: 15.8 µM (inactive)
EC50 [10]: > 32 µM (inactive)
EC50 [11]: 0.0648 µM (active)
IC50 [12]: > 32 µM (inactive)
EC50 [13]: > 32 µM (inactive)
IC50 [14]: > 32 µM (inactive)
EC50 [15]: > 32 µM (inactive)
Structure (SMILES): Cc1cc2cc3c(cc2n2c(SCC(=O)Nc4nc(-c5ccccc5)cs4)nnc12)OCO3

EC50 [16]: > 29.9 µM (not active)
EC50 [17]: > 29.9 µM (inactive)
Structure (SMILES): COc1cc(OC)c(C(=O)NC2CCCCCC2)cc1OC

EC50 [18]: 1.88 µM (active)
IC50 [19]: > 20 µM (inactive)
IC50 [20]: 5.33 µM (active)
IC50 [21]: 12.9 µM (active)
Structure (SMILES): NCCCn1c(C(=O)c2cc(Cl)c(N)c(Cl)c2)c2ccccc2[n+]1[O-]
